The numbers were not newly measured in patent US20120225789A1, “DNA REPAIR OR BRCA1-LIKE GENE SIGNATURE” (Baylor College of Medicine, priority 2009, published 2012), which cites them from elsewhere.

For this series, the system named is mammary tumors in which BRCA1 protein has been lost. The following applies: mice spontaneously developing BRCA1-lost mammary tumors.
Turning to `COc1cccc2c1C(=O)c1c(O)c3c(c(O)c1C2=O)C[C@@](O)(C(=O)CO)C[C@@H]3O[C@H]1C[C@H](N)[C@H](O)[C@H](C)O1` [doxorubicin], the “response of mice to chemotherapy” value is on record as “highly sensitive”. Take `N.N.[Cl][Pt][Cl]` [cisplatin]: the “response of mice to chemotherapy” value is given as “highly sensitive”.

`CC(=O)O[C@@]12CO[C@@H]1C[C@H](O)[C@@]1(C)C(=O)[C@H](O)C3=C(C)[C@@H](OC(=O)[C@H](O)[C@@H](NC(=O)OC(C)(C)C)c4ccccc4)C[C@@](O)([C@@H](OC(=O)c4ccccc4)[C@H]21)C3(C)C` [docetaxel]: the “response of mice to chemotherapy” value was “resistance”.
